Measurements reported in patent publication US6420330B1, “Use of quaternary carboxylic acid alkanolamine ester salts as microbicide agents” (Cognis Deutschland GmbH, priority 1997, dated 2002).

What was measured:
Assay type in all cases: cell-based
Salmonella enteritidis = assay: DGHM suspension test, other bacteria and fungi
Experimental: (§1) The effectiveness of the compound to be tested was determined by the suspension test in accordance with the guidelines of the Deutsche Gesellschaft for Hygiene and Mikrobiologie (DGHM). Test solutions containing quatemary carboxylic acid alkanolamine ester salts in the quantities shown in the Tables of 50, 100, 200, 400 and 800 mg/l were prepared using water with a hardness of 17° dH and optionally isopropanol. At room temperatures, quantities of 0.1 ml test germ suspension were pipetted into test tubes containing 10 ml of the test solutions described above and mixed. After various contact times of 5, 15, 30 and 60 minutes, 1 ml of material was taken from the test tubes by pipette and transferred to 9 ml inactivator solution (inactivators: 3.0% Tween, 0.3% lecithin, 0.1% histidine). After in activation for at least 5 and at most 30 minutes, the living germ count was determined by plating out onto casein peptone-soybean flour peptone (CaSo)-agar plates. Using a spiral plater, the inactivating mixture was directly plated out onto CaSo-agar. The samples were incubated for 24 to 72 hours at 37° C. and macroscopically evaluated for growth. The destruction time or the residual germ count was determined in this way. The germ count of an unchallenged water control is related to the germ count of the inactivated test solution taking the dilution into account. The higher the value, the better the microbicidal effect. The symbol < means that the logarithmic reductuon factor is below the indicated value or, in the case of the symbol >, above the indicated value. The abbreviation CU stands for “concentration used”. Methyl triethanolammonium dioctanoic acid ester methosulfate was tested as in A) against the bacteria

Enterococcus faecium = assay: DGHM suspension test, other bacteria and fungi
Experimental: as §1

[1] = system: Trichophyton mentagrophytes; assay: DGHM suspension test, other bacteria and fungi
Experimental: as §1

Escherichia coli = assay: DGHM suspension test, other bacteria and fungi
Experimental: as §1

Microsporum gypseum = assay: DGHM suspension test, other bacteria and fungi
Experimental: as §1

[2] = system: Staphylococcus aureus ATCC 6538; assay: DGHM suspension test, microbicidal activity
How it was run: (§2)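 DGHM suspension test at room temperature: 0.1 ml germ suspension into 10 ml test solution (50–800 mg/l in 17° dH water, optionally isopropanol). After 5, 15, 30 and 60 minutes contact, samples inactivated (Tween/lecithin/histidine), plated on CaSo-agar, incubated 24–72 hours at 37° C. Log reduction versus unchallenged water control.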

[3] = system: Candida albicans ATCC 10231; assay: DGHM suspension test, microbicidal activity
How it was run: as §2

[4] = system: Pseudomonas aeruginosa ATCC 15442; assay: DGHM suspension test, microbicidal activity
How it was run: as §2

[5] = CU 50 mg/l, contact time 5 mins.
[6] = CU 50 mg/l, contact time 15 mins.
[7] = CU 50 mg/l, contact time 30 mins.
[8] = CU 50 mg/l, contact time 60 mins.
[9] = CU 100 mg/l, contact time 5 mins.
[10] = CU 100 mg/l, contact time 15 mins.
[11] = CU 100 mg/l, contact time 30 mins.
[12] = CU 100 mg/l, contact time 60 mins.
[13] = CU 200 mg/l, contact time 5 mins.
[14] = CU 200 mg/l, contact time 15 mins.
[15] = CU 200 mg/l, contact time 30 mins.
[16] = CU 200 mg/l, contact time 60 mins.
[17] = CU 400 mg/l, contact time 5 mins.
[18] = CU 400 mg/l, contact time 15 mins.
[19] = CU 400 mg/l, contact time 30 mins.
[20] = CU 400 mg/l, contact time 60 mins.
[21] = CU 800 mg/l, contact time 5 mins.
[22] = CU 800 mg/l, contact time 15 mins.
[23] = CU 800 mg/l, contact time 30 mins.
[24] = CU 800 mg/l, contact time 60 mins.

For CCCCCCCC(=O)OCC[N+](C)(CCO)CCOC(=O)CCCCCCC.COS(=O)(=O)[O-] [Example 11, Methyl triethanolammonium dioctanoic acid ester methosulfate], the logarithmic reduction rate (Salmonella enteritidis; 50 ppm, 5 Mins.) was under 1.8, the logarithmic reduction rate (Salmonella enteritidis; 50 ppm, 15 Mins.) was 3.29 and the logarithmic reduction rate (Salmonella enteritidis; 50 ppm, 60 Mins.) was 3.67. The logarithmic reduction rate (Salmonella enteritidis; 100 ppm, 5 Mins.) was 3.96, the logarithmic reduction rate (Salmonella enteritidis; 100 ppm, 15 Mins.) was 5.12 and the logarithmic reduction rate (Salmonella enteritidis; 100 ppm, 60 Mins.) was over 5.76. The logarithmic reduction rate (Salmonella enteritidis; 200 ppm, 5 Mins.) was 4.88, the logarithmic reduction rate (Salmonella enteritidis; 200 ppm, 15 Mins.) was over 5.77 and the logarithmic reduction rate (Salmonella enteritidis; 200 ppm, 60 Mins.) was over 5.76. For the same compound, the logarithmic reduction rate (Salmonella enteritidis; 400 ppm, 5 Mins.) was over 5.8, the logarithmic reduction rate (Salmonella enteritidis; 400 ppm, 15 Mins.) was over 5.72 and the logarithmic reduction rate (Salmonella enteritidis; 400 ppm, 60 Mins.) was over 5.76. It also gave a logarithmic reduction rate (Enterococcus faecium; 50 ppm, 5 Mins.) of over 6.3, a logarithmic reduction rate (Enterococcus faecium; 50 ppm, 15 Mins.) of over 5.88 and a logarithmic reduction rate (Enterococcus faecium; 50 ppm, 60 Mins.) of over 5.96. The logarithmic reduction rate (Enterococcus faecium; 100 ppm, 5 Mins.) was over 6.3, the logarithmic reduction rate (Enterococcus faecium; 100 ppm, 15 Mins.) was over 5.88 and the logarithmic reduction rate (Enterococcus faecium; 100 ppm, 60 Mins.) was over 5.96. It also gave a logarithmic reduction rate (Enterococcus faecium; 200 ppm, 5 Mins.) of over 6.3, a logarithmic reduction rate (Enterococcus faecium; 200 ppm, 15 Mins.) of over 5.88 and a logarithmic reduction rate (Enterococcus faecium; 200 ppm, 60 Mins.) of over 5.96. It also gave a logarithmic reduction rate (Enterococcus faecium; 400 ppm, 5 Mins.) of over 6.3, a logarithmic reduction rate (Enterococcus faecium; 400 ppm, 15 Mins.) of over 5.88 and a logarithmic reduction rate (Enterococcus faecium; 400 ppm, 60 Mins.) of over 5.96. The logarithmic reduction rate ([1]; 50 ppm, 5 Mins.) was 0.34, the logarithmic reduction rate ([1]; 50 ppm, 15 Mins.) was 0.95 and the logarithmic reduction rate ([1]; 50 ppm, 60 Mins.) was 2.04. It also gave a logarithmic reduction rate ([1]; 100 ppm, 5 Mins.) of 0.38, a logarithmic reduction rate ([1]; 100 ppm, 15 Mins.) of 0.95 and a logarithmic reduction rate ([1]; 100 ppm, 60 Mins.) of 2.05. The logarithmic reduction rate ([1]; 200 ppm, 5 Mins.) was 0.28, the logarithmic reduction rate ([1]; 200 ppm, 15 Mins.) was 0.92 and the logarithmic reduction rate ([1]; 200 ppm, 60 Mins.) was 2.16. For the same compound, the logarithmic reduction rate ([1]; 400 ppm, 5 Mins.) was 0.35, the logarithmic reduction rate ([1]; 400 ppm, 15 Mins.) was 0.89 and the logarithmic reduction rate ([1]; 400 ppm, 60 Mins.) was 2.29. For the same compound, the “destruction of Trichophyton mentagrophytes” value ([1]; long contact time (60 minutes)) was “around 2 powers of ten”, the logarithmic reduction rate (Escherichia coli; 50 ppm, 5 Mins.) was 4.12 and the logarithmic reduction rate (Escherichia coli; 50 ppm, 15 Mins.) was over 5.62. It also gave a logarithmic reduction rate (Escherichia coli; 50 ppm, 60 Mins.) of over 5.76, a logarithmic reduction rate (Escherichia coli; 100 ppm, 5 Mins.) of over 5.58 and a logarithmic reduction rate (Escherichia coli; 100 ppm, 15 Mins.) of over 5.62. The logarithmic reduction rate (Escherichia coli; 100 ppm, 60 Mins.) was over 5.76, the logarithmic reduction rate (Escherichia coli; 200 ppm, 5 Mins.) was over 5.58 and the logarithmic reduction rate (Escherichia coli; 200 ppm, 15 Mins.) was over 5.62. For the same compound, the logarithmic reduction rate (Escherichia coli; 200 ppm, 60 Mins.) was over 5.76, the logarithmic reduction rate (Escherichia coli; 400 ppm, 5 Mins.) was over 5.58 and the logarithmic reduction rate (Escherichia coli; 400 ppm, 15 Mins.) was over 5.62. For the same compound, the logarithmic reduction rate (Escherichia coli; 400 ppm, 60 Mins.) was over 5.76, the logarithmic reduction rate (Microsporum gypseum; 50 ppm, 5 Mins.) was over 3.52 and the logarithmic reduction rate (Microsporum gypseum; 50 ppm, 15 Mins.) was over 3.58. It also gave a logarithmic reduction rate (Microsporum gypseum; 50 ppm, 60 Mins.) of over 3.62, a logarithmic reduction rate (Microsporum gypseum; 100 ppm, 5 Mins.) of over 3.52 and a logarithmic reduction rate (Microsporum gypseum; 100 ppm, 15 Mins.) of over 3.58. The logarithmic reduction rate (Microsporum gypseum; 100 ppm, 60 Mins.) was over 3.62, the logarithmic reduction rate (Microsporum gypseum; 200 ppm, 5 Mins.) was over 3.52 and the logarithmic reduction rate (Microsporum gypseum; 200 ppm, 15 Mins.) was over 3.58. The logarithmic reduction rate (Microsporum gypseum; 200 ppm, 60 Mins.) was over 3.62, the logarithmic reduction rate (Microsporum gypseum; 400 ppm, 5 Mins.) was over 3.52 and the logarithmic reduction rate (Microsporum gypseum; 400 ppm, 15 Mins.) was over 3.58. The logarithmic reduction rate (Microsporum gypseum; 400 ppm, 60 Mins.) was over 3.62 and the “killing of the fungus Microsporum gypseum” value (Microsporum gypseum; concentration of 50 mg/l, shortest contact time) was “almost completely killed off”.

CCCCCCCCC(=O)OCC[N+](C)(C)CCOC(=O)CCCCCCCC.COS(=O)(=O)[O-] [Example 3, dimethyl diethanolammonium dipelargonic acid ester methosulfate] gave a logarithmic reduction factor [2, 5] of under 1.31, a logarithmic reduction factor [2, 6] of 2.31 and a logarithmic reduction factor [2, 7] of 3.01. For the same compound, the logarithmic reduction factor [2, 8] was 4.85, the logarithmic reduction factor [2, 9] was under 1.31 and the logarithmic reduction factor [2, 10] was 3.67. The logarithmic reduction factor [2, 11] was over 5.19, the logarithmic reduction factor [2, 12] was over 5.55 and the logarithmic reduction factor [2, 13] was 2.05. The logarithmic reduction factor [2, 14] was over 5.74, the logarithmic reduction factor [2, 15] was over 5.19 and the logarithmic reduction factor [2, 16] was over 5.55. It also gave a logarithmic reduction factor [2, 17] of 3.25, a logarithmic reduction factor [2, 18] of over 5.74 and a logarithmic reduction factor [2, 19] of over 5.19. For the same compound, the logarithmic reduction factor [2, 20] was over 5.55, the logarithmic reduction factor [2, 21] was 3.78 and the logarithmic reduction factor [2, 22] was over 5.74. It also gave a logarithmic reduction factor [2, 23] of over 5.19, a logarithmic reduction factor [2, 24] of over 5.55 and a logarithmic reduction factor [3, 5] of 2.86. It also gave a logarithmic reduction factor [3, 6] of over 4.63, a logarithmic reduction factor [3, 7] of over 4.66 and a logarithmic reduction factor [3, 8] of over 4.67. The logarithmic reduction factor [3, 9] was over 4.63, the logarithmic reduction factor [3, 10] was over 4.63 and the logarithmic reduction factor [3, 11] was over 4.66. For the same compound, the logarithmic reduction factor [3, 12] was over 4.67, the logarithmic reduction factor [3, 13] was over 4.63 and the logarithmic reduction factor [3, 14] was over 4.63. For the same compound, the logarithmic reduction factor [3, 15] was over 4.66, the logarithmic reduction factor [3, 16] was over 4.67 and the logarithmic reduction factor [3, 17] was over 4.63. It also gave a logarithmic reduction factor [3, 18] of over 4.63, a logarithmic reduction factor [3, 19] of over 4.66 and a logarithmic reduction factor [3, 20] of over 4.67. The logarithmic reduction factor [3, 21] was over 4.63, the logarithmic reduction factor [3, 22] was over 4.63 and the logarithmic reduction factor [3, 23] was over 4.66. The logarithmic reduction factor [3, 24] was over 4.67, the logarithmic reduction factor [4, 5] was under 1.59 and the logarithmic reduction factor [4, 6] was 2.99. It also gave a logarithmic reduction factor [4, 7] of 3.58, a logarithmic reduction factor [4, 8] of 3.77 and a logarithmic reduction factor [4, 9] of 4.36. For the same compound, the logarithmic reduction factor [4, 10] was over 5.58, the logarithmic reduction factor [4, 11] was over 5.67 and the logarithmic reduction factor [4, 12] was over 5.53. The logarithmic reduction factor [4, 13] was over 5.59, the logarithmic reduction factor [4, 14] was over 5.58 and the logarithmic reduction factor [4, 15] was over 5.67. It also gave a logarithmic reduction factor [4, 16] of over 5.53, a logarithmic reduction factor [4, 17] of over 5.59 and a logarithmic reduction factor [4, 18] of over 5.58. For the same compound, the logarithmic reduction factor [4, 19] was over 5.67, the logarithmic reduction factor [4, 20] was over 5.53 and the logarithmic reduction factor [4, 21] was over 5.59. The logarithmic reduction factor [4, 22] was over 5.58, the logarithmic reduction factor [4, 23] was over 5.67 and the logarithmic reduction factor [4, 24] was over 5.53.
